Patent US4719223A, “Imidazolethiol dopamine-beta-hydroxylase inhibitors” (SmithKline Beckman Corporation, priority 1985, dated 1988)
Where two headings read alike, the source gives them in different places.

Legend:
[1] = target: T1, dopamine-β-hydroxylase (DBH) (Bos taurus, UniProt P15101); assay: in vitro DBH inhibition (conversion of tyramine to octopamine, absorbance at 330 nm); type: biochemical; details: for DBH inhibiting activity: phenolic hydroxy group replaced by isostere
T1 sequence (P15101 1-610): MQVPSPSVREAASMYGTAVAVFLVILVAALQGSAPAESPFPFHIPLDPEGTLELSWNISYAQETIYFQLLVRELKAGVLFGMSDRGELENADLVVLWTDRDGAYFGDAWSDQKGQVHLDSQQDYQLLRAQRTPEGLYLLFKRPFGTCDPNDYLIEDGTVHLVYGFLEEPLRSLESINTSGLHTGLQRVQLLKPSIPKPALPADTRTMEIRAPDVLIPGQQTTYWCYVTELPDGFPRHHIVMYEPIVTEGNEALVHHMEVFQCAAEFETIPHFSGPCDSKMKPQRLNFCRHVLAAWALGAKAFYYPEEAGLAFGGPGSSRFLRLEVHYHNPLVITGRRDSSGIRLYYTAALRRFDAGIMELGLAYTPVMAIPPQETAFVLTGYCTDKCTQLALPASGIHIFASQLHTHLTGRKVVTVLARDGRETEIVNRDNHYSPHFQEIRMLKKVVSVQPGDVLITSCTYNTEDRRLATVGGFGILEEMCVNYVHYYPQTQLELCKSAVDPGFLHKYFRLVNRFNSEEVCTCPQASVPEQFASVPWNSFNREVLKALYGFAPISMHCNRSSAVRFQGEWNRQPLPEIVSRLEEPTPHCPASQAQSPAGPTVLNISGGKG
Description: Because the compounds of Formula I inhibit DBH activity, they have therapeutic value as diuretic, natriuretic, cardiotonic, antihypertensive and vasodilator agents, as well as antiulcerogenic and anti-Parkinsonian agents. Listed in Table I are the compounds of the invention that were tested for in vitro DBH inhibition by a standard procedure for assaying conversion of tyramine to octopamine in the presence of DBH. J. J. Pisano, et al., Biochim. Biophys. Acta; 43, […] (1960). Octopamine was assayed following sodium periodate oxidation to p-hydroxybenzaldehyde by measuring spectrophotometric absorbance at 330 nm. In Table I, inhibition is given in molar concentration of compound at which DBH activity was halved (IC50). Melting points (mp) are given in °C.
This testing was performed using compounds prepared by substituting various phenolic isosteres for the phenolic hydroxy group of another DBH inhibitor, 1-(3',5'-difluoro-4'-hydroxybenzyl)imidazole-2-thiol (U.S. patent application Ser. No. 590,665, filed Mar. 19, 1984).

[2] = tested on: peripheral dopamine (DA) and norepinephrine (NE) levels; assay: in vivo effect on peripheral dopamine (DA) and norepinephrine (NE) levels; parameters: species or system spontaneously hypertensive rats; details: 50 mg/kg orally, twice, about 18 h apart, sacrificed about 2 h after second dose; for DA/NE Ratio / DA: p < 0.001; for NE / DA: μg per gram of tissue
Description: One of the compounds of the invention was tested for its effect in vivo on peripheral dopamine (DA) and norepinephrine (NE) levels substantially by the procedure of DaPrada and Zurcher, Life Sciences, 19, 1161, (1976). Groups of five spontaneously hypertensive rats were dosed orally, twice, the second dose approximately 18 hours after the first, and were sacrificed about 2 hours after the second dose.

[3] = mean arterial blood pressure in spontaneously hypertensive rats; type: in vivo; details: 50 mg/kg intraperitoneally; 15 min
Description: Further, spontaneously hypertensive rats were dosed with a suspension or solution of 1-(4'-amino-3',5'-difluorobenzyl)imidazole-2-thiol at a dose of 50 mg/kg intraperitoneally, and mean arterial blood pressure was monitored for 260 minutes using indwelling cannulae positioned in the tail arteries. Approximate forty percent reductions in blood pressure were observed fifteen minutes following administration of this compound. At 260 minutes after administration of this compound, blood pressure remained reduced by approximately ten percent when compared to vehicle-treated controls.

[4] = tested on: DBH; details: cited from earlier work; for DBH inhibition: literature reports; for mode of DBH inhibition: apparent, phenethylamine analogues
[5] = Ehrreich et al. 1976; cited from earlier work
[6] = Teresawa et al. 1971; cited from earlier work
[7] = tested on: DBH; details: Friedman et al. 1978; significance uncertain; cited from earlier work
[8] = in vitro, tyramine to octopamine, read-out: IC50 (molar concentration of compound at which DBH activity was halved)

Oc1c(F)cc(Cn2cc[nH]c2=S)cc1F [1-(3',5'-difluoro-4'-hydroxybenzyl)imidazole-2-thiol]
IC50 ([1]; comparison compound of U.S. patent application Ser. No. 590,665, read-out: IC50 of comparison DBH inhibitor): 80 nM

Nc1c(Cl)cc(Cn2ccnc2S)cc1Cl [1-(4'-amino-3',5'-dichlorobenzyl)imidazole-2-thiol]
IC50 [1, 8]: 3100 nM

Nc1c(F)cc(Cn2ccnc2S)cc1F [1-(4'-amino-3',5'-difluorobenzyl)imidazole-2-thiol]
IC50 [1, 8]: 1200 nM
DA/NE Ratio [2]: 0.151
NE [2]: 5.53 µg/g
DA [2]: 0.821 µg/g
reduction in blood pressure, fifteen minutes after administration [3]: forty

O=C(O)c1ccc(CCC(Br)CBr)cn1 (stereo not shown) [5-(3,4-dibromobutyl)picolinic acid]
DBH inhibition [4]: DBH inhibitors

O=C(O)c1ccc(CCCCCl)cn1 [5-(4-chlorobutyl)picolinic acid]
DBH inhibition [4]: inhibit DBH

CN(C)C(=S)SCc1ccc(C(=O)O)nc1 [5-(dimethyldithiocarbamoyl)methylpicolinic acid]
DBH inhibition [4]: DBH inhibitors

CS(=O)(=O)Cc1c(F)cc(Cn2ccnc2S)cc1F [--CH2 SO2 CH3]
DBH inhibiting activity ([1]; in vitro): devoid of DBH inhibiting activity

O=CNc1c(F)cc(Cn2ccnc2S)cc1F [--NHCHO]
DBH inhibiting activity ([1]; in vitro): devoid of DBH inhibiting activity

O=C(Nc1c(F)cc(Cn2ccnc2S)cc1F)C(F)(F)F [--NHCOCF3]
DBH inhibiting activity ([1]; in vitro): devoid of DBH inhibiting activity

NS(=O)(=O)Nc1c(F)cc(Cn2ccnc2S)cc1F [--NHSO2 NH2]
DBH inhibiting activity ([1]; in vitro): devoid of DBH inhibiting activity

NOCc1ccccc1 [Benzyloxyamine, benzyloxyamine]
mode of DBH inhibition [4]: competitive inhibitors

CCCCc1ccc(C(N)=O)nc1 [Bupicomide, 5-(n-butyl)picolinamine]
DBH inhibition [4]: DBH inhibitor
antihypertensive activity [5]: antihypertensive activity

CCCCc1ccc(C(=O)O)nc1 [Fusaric acid]
DA/NE Ratio [2]: 0.0937
NE [2]: 5.63 µg/g
DA [2]: 0.529 µg/g
hepatotoxicity [6]: hepatotoxic

C[C@](N)(Cc1ccc(O)c(O)c1)C(=O)O [alpha-methyl-DOPA]
DBH levels in treated patients [7]: lowered DBH levels

NNCc1ccccc1 [benzylhydrazine]
mode of DBH inhibition [4]: competitive inhibitors

COC(=O)[C@H]1[C@H]2C[C@@H]3c4[nH]c5cc(OC)ccc5c4CCN3C[C@H]2C[C@@H](OC(=O)c2cc(OC)c(OC)c(OC)c2)[C@@H]1OC [reserpine]
DBH levels in treated patients [7]: lowered DBH levels

phenylpicolinic acid
DBH inhibitory activity relative to fusaric acid ([4]; Runti et al. 1980): twice the inhibitory activity of fusaric acid
